Measurements from US20230201214A1, “LPXC INHIBITOR, FORMULATIONS, AND USES THEREOF” (priority 2020, published 2023).
≈ marks a conversion by molar mass, not a printed value. Values belong to the compound of their own block, whether it stands above or below them.

What was measured:
[1] = test system: N. cyriacigeorgica complex NEQAS 3295; assay: Bacterial susceptibility testing (MIC, broth microdilution); format: cell-based; conditions: Nocardia cyriacigeorgica
Method: (§1) Minimal inhibitory concentrations (MIC) against a variety of gram-negative and gram-positive bacterial strains were determined by the broth microdilution method in accordance with the Clinical and Laboratory Standards Institute (CLSI) guidelines. In brief, organism suspensions were adjusted to a 0.5 McFarland standard to yield a final inoculum between 3×10^5 and 7×10^5 colony-forming units (CFU)/mL. Drug dilutions and inocula were made in sterile, cation adjusted Mueller-Hinton Broth (Beckton Dickinson). An inoculum volume of 100 μL was added to wells containing 100 μL. of broth with 2-fold serial dilutions of drug. All inoculated microdilution trays were incubated in ambient air at 35° C. for 18-24 h. Following incubation, the lowest concentration of the drug that prevented visible growth (OD600 nm<0.05) was recorded as the MIC. Performance of the assay was monitored by the use of laboratory quality-control strains and levofloxacin, a compound with a defined MIC spectrum, in accordance with CLSI guidelines.

[2] = test system: gram-negative and gram-positive bacterial strains; assay: Bacterial susceptibility testing, whole panel; format: cell-based
Method: as §1

[3] = Oral solution formulation excipient screening (solubility estimated by HPLC); format: physicochemical
Text: The solubility of Compound A was estimated by HPLC in multiple potential excipients for a solution formulation (Table 4).

SMILES: N#CC1CN(C[C@@H](Cc2ncnc(O)c2O)c2ccc(C#Cc3ccc(CN4CCOCC4)cc3)cc2)C1 [Compound A, (S)-1-(3-(5,6-dihydroxypyrimidin-4-yl)-2-(4-((4-(morpholinomethyl)phenyl)ethynyl)phenyl)propyl)azetidine-3-carbonitrile]
MIC [1]: > 64 µg/mL
selectivity for gram-negative bacteria over gram-positive bacteria ([2]; from MIC panel of Table 1): high selectivity
solubility ([3]; Capmul MCM, oil or lipid): 330 µg/mL (≈ 648 µM)
solubility ([3]; Cremophor RH40, aqueous with cosolvent or surfactant or cyclodextrin): 900 µg/mL (≈ 1770 µM)
solubility ([3]; HCl solution (pH 0.5), pH 0.5, simulated gastric fluid): ≥ 45000 µg/mL
solubility ([3]; Labrafil M 1944, oil or lipid): 120 µg/mL (≈ 235 µM)
solubility ([3]; Lactic acid, organic solvent or mixture): ≥ 20000 µg/mL
solubility ([3]; Maisine CC, oil or lipid): 130 µg/mL (≈ 255 µM)
solubility ([3]; Oleic acid, oil or lipid): 480 µg/mL (≈ 942 µM)
solubility ([3]; Peppermint oil, oil or lipid): 50 µg/mL (≈ 98.1 µM)
solubility ([3]; Polysorbate 20, aqueous with cosolvent or surfactant or cyclodextrin): 850 µg/mL (≈ 1670 µM)
solubility ([3]; Polysorbate 80, aqueous with cosolvent or surfactant or cyclodextrin): 620 µg/mL (≈ 1220 µM)
solubility ([3]; Propylene glycol (pH 0.5), pH 0.5, organic solvent or mixture): ≥ 45000 µg/mL
solubility ([3]; Propylene glycol, organic solvent or mixture): < 10000 µg/mL
solubility ([3]; SBEβCD (30% w/v), pH 0.5, pH 0.5, aqueous with cosolvent or surfactant or cyclodextrin): ≥ 45000 µg/mL
solubility ([3]; SBEβCD (30% w/v), pH 3, pH 3, aqueous with cosolvent or surfactant or cyclodextrin): < 10000 µg/mL
solubility ([3]; Solutol HS 15, aqueous with cosolvent or surfactant or cyclodextrin): 630 µg/mL (≈ 1240 µM)
solubility ([3]; Soybean oil, oil or lipid): 20 µg/mL (≈ 39.2 µM)
solubility ([3]; Transcutol (pH 0.5), pH 0.5, organic solvent or mixture): ≥ 10000 µg/mL
solubility ([3]; Transcutol, organic solvent or mixture): < 10000 µg/mL
solubility ([3]; Vitamin E TPGS, aqueous with cosolvent or surfactant or cyclodextrin): < 10000 µg/mL
solubility ([3]; aqueous with cosolvent or surfactant or cyclodextrin, Gelucire 44/14 (surfactant)): < 10000 µg/mL
solubility in excipients, overall ([3]; most excipients, acidifying the excipients led to higher solubility): Low solubility
solubility ([3]; organic solvent or mixture, PEG400 (co-solvent)): < 10000 µg/mL

MIC [1]: 8 µg/mL (≈ 22.1 µM)
SMILES: C[C@H]1COc2c(N3CCN(C)CC3)c(F)cc3c(=O)c(C(=O)O)cn1c23 [Levofloxacin]

SMILES: C[C@@H](O)[C@H]1C(=O)N2C(C(=O)O)=C(S[C@@H]3CN[C@H](C(=O)N(C)C)C3)[C@H](C)[C@H]12 [Meropenem, reference compound]
MIC [1]: > 1 µg/mL
activity against gram-positive bacteria ([2]; various strains of gram-positive bacteria): do have activity
